{
  "source": "paper PMC8825254",
  "about": "“Rational design of Striga hermonthica-specific seed germination inhibitors” (Plant Physiology, 2021)",
  "key": {"OsD14": {"molecular_target": "T1, OsD14 (Oryza sativa subsp. japonica, UniProt Q10QA5)", "T1 construct": "made in house; host or cells: Escherichia coli BL21 (DE3)", "T1 sequence (Q10QA5 1-318)": "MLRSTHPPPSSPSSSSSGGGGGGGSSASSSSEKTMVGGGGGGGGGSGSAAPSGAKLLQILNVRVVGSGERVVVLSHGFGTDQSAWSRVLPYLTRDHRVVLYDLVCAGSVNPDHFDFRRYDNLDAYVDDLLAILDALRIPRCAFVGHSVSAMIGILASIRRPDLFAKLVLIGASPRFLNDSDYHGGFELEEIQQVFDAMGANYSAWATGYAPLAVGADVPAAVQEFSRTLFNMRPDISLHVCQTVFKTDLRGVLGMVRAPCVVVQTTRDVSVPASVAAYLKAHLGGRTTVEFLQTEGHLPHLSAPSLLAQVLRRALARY", "experiment": "YLG hydrolysis competition assay with OsD14", "format": "biochemical, rice (Oryza sativa)", "details": "Figure 3D-F; mean ± SD, n = 3; no unit printed with values (x-axis µM); read-out: IC50, OsD14-mediated YLG hydrolysis (Figure 3)"}, "ShHTL7": {"molecular_target": "T2, ShHTL7 (Striga hermonthica, UniProt A0A0M3PNA2)", "T2 sequence (A0A0M3PNA2 1-271)": "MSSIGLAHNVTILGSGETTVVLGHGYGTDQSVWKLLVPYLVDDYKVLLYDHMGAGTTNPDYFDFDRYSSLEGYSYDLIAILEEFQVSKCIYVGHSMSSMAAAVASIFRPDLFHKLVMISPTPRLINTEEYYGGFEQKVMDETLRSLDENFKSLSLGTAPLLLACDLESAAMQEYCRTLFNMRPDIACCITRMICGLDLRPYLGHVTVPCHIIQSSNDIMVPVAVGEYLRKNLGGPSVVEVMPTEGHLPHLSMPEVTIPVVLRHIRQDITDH", "experiment": "DSF thermal stability of ShHTL7", "format": "binding", "details": "0 to 100 µM; result in words", "experimental": "About 10 µM of ShHTL7 purified protein was incubated with various concentrations of KK023-N1, Triton X-100, or KK094 (ranging from 0 to 100 µM) for 30 min. Then SYPRO Orange (reporter dye) was added to 1× final concentration. The reactions were carried out in 25 µL 1× PBs buffer. The assay was performed on CFX96 Real-Time System (BIO-RAD, Hercules, CA, USA) thermal cycler on 96-well quantitative polymerase chain reaction (qPCR) white plate, and the plate was sealed with adhesive qPCR plate seal to prevent samples evaporation ([Bai et al., 2019]). First, samples were heated to 25°C for 1 min followed by linear increase in the temperature ramp from 25°C to 99°C at a rate of 0.5°C/15 s. The change in the protein folding was monitored by the changes in the fluorescence of the reporter dye, and the data were analyzed by the machine software that plots the inflection point of fluorescence against temperature. Data were exported into Excel, and replicates were averaged to generate the graph."}, "[1]": {"system": "Rice seeds (cv Nipponbare)", "experiment": "Rice germination and seedling growth in response to inhibitors", "format": "in vivo, rice (Oryza sativa)", "details": "result in words", "experimental": "Rice seeds (cv Nipponbare) were surface sterilized in 2.5% NaClO and 0.05% of Tween-20 for 10 min, and rinsed 6 times with sterilized MilliQ water. Seeds were imbibed in sterilized water at 30°C for 24 h in the dark. Next day, ∼3 mL of each inhibitor at different concentrations (3, 6, 12, 25, 50, and 100 μM) was added along with 0.5 Murashige and Skoog (MS) medium into 24-well plate, and one imbibed rice seed was placed in each well. The experiment was performed in six replications (one plant/well, n = 6) for each concentration. Nontreated rice seeds in 0.5-MS solution were included as a control. Seeds were allowed to germinate at 30°C in the dark for 48 h for monitoring seeds germination, and seeds were moved to a growth chamber with white fluorescent light (130–180 μM m^−2 s^−1) and12 h:12 h (Light/Dark (L/D)) period at 28°C. After 1 week, length of rice seedlings was measured and recorded, and pictures of seedlings were taken."}, "Striga hermonthica": {"system": "Striga hermonthica", "experiment": "Striga emergence study in infested rice pots under greenhouse conditions", "format": "in vivo, Striga hermonthica on rice cv IAC165", "details": "for Striga emergence, average number: twice per week for 4 weeks, 10 weeks after rice planting, mock 26 per pot; for Change in Striga emergence compared to mock: Figure 10B; for Rice plant height, change: Striga-infested pots, Figure 10C", "experimental": "Approximately 6,000 Striga seeds (20 mg) were weighed, mixed with sand/soil mixture (1:2 ratio), and put into a 3-L perforated plastic pot containing 0.5-L clean sand/soil mixture in the bottom. The pots were kept under greenhouse-controlled conditions at 30°C and kept moist with water for Striga preconditioning for 10 d. Formulated KK023-N1 and Triton X-100 were applied (at 100 mL per pot) at 10 and 100 µM concentration. Then three rice seedlings (cv IAC165, 10 d old) were planted in each pot after 24 h of inhibitor application. All the treatments were applied continuously twice per week for 4 weeks. Water with same amount of solvent (Cyclohexanone+Atlas-G) was used as a control. Pots were irrigated with 200 mL of Hoagland’s nutrient solution with low phosphate (4 µM) when needed. The rice plants were allowed to grow under greenhouse conditions for 10 weeks and the emerged Striga plants were counted from each pot. The height of rice plants was also measured to see impact of Striga infestation on host growth."}, "[2]": {"system": "ShHTL7–ShMAX2-CTH interaction", "experiment": "GST pull-down of His-ShHTL7 by CTH of ShMAX2", "format": "binding, Striga hermonthica", "details": "100 µM compound, 100 µM GR24; result in words", "experimental": "Purified GST-CTH of ShMAX2 and GST were bound to the Glutathione Sepharose 4B Beads (GE healthcare). Purified 6× His-ShHTL7 was incubated with 100 μM KK023-N1 and Triton X-100 for 3 h, separately. Then apo ShHTL7 was added to the beads bound by GST-CTH of ShMAX2 in the presence and absence of 100 μM GR24. Similarly, ShHTL7 incubated with KK023-N1 and Triton X-100 were added to the beads bound by GST-CTH of ShMAX2 in the presence of 100 μM GR24. Apo ShHTL7 was added to the beads bound by GST only in the presence of 100 μM GR24 as a control. All the samples were washed with lysis buffer (50-mM Tris–HCl pH 8.0, 200 mM NaCl, 2 mM DTT) three times and then eluted with addition of 20 mM reduced glutathione. Thus, the eluted protein was subjected to Western blot using an antibody specific to 6XHis (Abcam, Cambridge, UK)."}},
  "data": [
    {"molecule": "COc1ccc(CCCc2cccc3c2CCN3C(=O)n2ccnn2)cc1", "note": "[KK023-N1]", "values": [
      {"measurement": "IC50", "setting": "OsD14", "value": "29.6 ± 3.77", "unit": "µM"},
      {"measurement": "Effect on SYPRO orange fluorescence peak of ShHTL7", "setting": "ShHTL7", "value": "decreased the fluorescence of the SYPRO orange"},
      {"measurement": "Effect on melting temperature of ShHTL7", "setting": "ShHTL7", "value": "did not affect the melting temperature"},
      {"measurement": "Effect on rice seedling plant height", "setting": "[1]; all treatments (3-100 µM), 1 week", "value": "no effect on plant height was observed"},
      {"measurement": "Effect on rice seed germination", "setting": "[1]; up to 100 µM", "value": "did not detect any effect on seed germination"},
      {"measurement": "Phenotype of treated rice seedlings versus control", "setting": "[1]; up to 100 µM", "value": "did not show any significant phenotypic difference"},
      {"measurement": "Striga emergence, average number", "setting": "Striga hermonthica; 10 µM", "value": 20, "unit": "Striga plants per pot"},
      {"measurement": "Change in Striga emergence compared to mock", "setting": "Striga hermonthica; 10 µM", "value": -24, "unit": "%"},
      {"measurement": "Rice plant height, change", "setting": "Striga hermonthica; 10 µM", "value": "+17%"},
      {"measurement": "Striga emergence, average number", "setting": "Striga hermonthica; 100 µM", "value": 16, "unit": "Striga plants per pot"},
      {"measurement": "Change in Striga emergence compared to mock", "setting": "Striga hermonthica; 100 µM", "value": 38, "unit": "%"},
      {"measurement": "Rice plant height, change", "setting": "Striga hermonthica; 100 µM", "value": "+26%"},
      {"measurement": "Effect on GR24-dependent pull-down of His-ShHTL7 by GST-CTH of ShMAX2", "setting": "[2]", "value": "could inhibit such interaction"}
    ]}
  ]
}
